The values that follow come from PMC5218480 (PLoS ONE, 2017).

For this assay, the system named is MV-4-11 cells. Nature of the assay: Gene expression microarray analysis (Affymetrix PrimeView) and GSEA. It is filed as cell-based, human. Further details: RFU PODN (11730768_x_at) / Fold change /veh PODN (11730768_x_at) / RFU LINC00158 (11744669_a_at) / Fold change /veh LINC00158 (11744669_a_at) / RFU DUSP10 (11751237_a_at) / Fold change /veh DUSP10 (11751237_a_at) / RFU ID3 (11757404_x_at) / Fold change /veh ID3 (11757404_x_at) / RFU PLEKHG5 (11737974_s_at) / Fold change /veh PLEKHG5 (11737974_s_at) / RFU LRRC4B (11730491_at) / Fold change /veh LRRC4B (11730491_at) / RFU GIMAP4 (11747438_a_at) / Fold change /veh GIMAP4 (11747438_a_at) / RFU KRT8 (11758183_x_at) / Fold change /veh KRT8 (11758183_x_at) / RFU CNN1 (11734310_a_at) / Fold change /veh CNN1 (11734310_a_at) / RFU VPS37D (11726825_at) / Fold change /veh VPS37D (11726825_at) / RFU C10orf10 (11716522_x_at) / Fold change /veh C10orf10 (11716522_x_at) / RFU KIR2DL2 /// KIR2DL4 /// KIR2DL5A /// KIR2DL5B /// KIR2DS1 /// KIR2DS2 /// KIR2DS3 /// KIR2DS4 /// KIR3DL3 /// KIR3DL3 /// KIR3DS1 (11738374_at) / Fold change /veh KIR2DL2 /// KIR2DL4 /// KIR2DL5A /// KIR2DL5B /// KIR2DS1 /// KIR2DS2 /// KIR2DS3 /// KIR2DS4 /// KIR3DL3 /// KIR3DL3 /// KIR3DS1 (11738374_at) / RFU C1QL1 (11718748_at) / Fold change /veh C1QL1 (11718748_at) / RFU TMPRSS4 (11747572_a_at) / Fold change /veh TMPRSS4 (11747572_a_at) / RFU HAMP (11756126_x_at) / Fold change /veh HAMP (11756126_x_at) / RFU RNFT2 (11725882_a_at) / Fold change /veh RNFT2 (11725882_a_at) / RFU NR4A2 (11747474_a_at) / Fold change /veh NR4A2 (11747474_a_at) / RFU ABCC12 (11746883_a_at) / Fold change /veh ABCC12 (11746883_a_at) / RFU TMEM136 (11760407_x_at) / Fold change /veh TMEM136 (11760407_x_at) / RFU CLDN22 /// WWC2 (11732394_at) / Fold change /veh CLDN22 /// WWC2 (11732394_at) / RFU HLA-DPB1 (11760878_x_at) / Fold change /veh HLA-DPB1 (11760878_x_at) / RFU SPINT1 (11716480_a_at) / Fold change /veh SPINT1 (11716480_a_at) / RFU GAP43 (11754022_s_at) / Fold change /veh GAP43 (11754022_s_at) / RFU A4GNT (11735810_at) / Fold change /veh A4GNT (11735810_at) / RFU PRB3 (11715151_x_at) / Fold change /veh PRB3 (11715151_x_at) / RFU TUBB4B (11761932_at) / Fold change /veh TUBB4B (11761932_at) / RFU CAPN14 (11732068_a_at) / Fold change /veh CAPN14 (11732068_a_at) / RFU TMCC2 (11721928_a_at) / Fold change /veh TMCC2 (11721928_a_at) / RFU IRGQ (11745062_a_at) / Fold change /veh IRGQ (11745062_a_at) / RFU FAM174B (11720279_a_at) / Fold change /veh FAM174B (11720279_a_at) / RFU TMPRSS4 (11748680_a_at) / Fold change /veh TMPRSS4 (11748680_a_at) / RFU FAM212B (11763350_a_at) / Fold change /veh FAM212B (11763350_a_at) / RFU PLEKHG5 (11743358_a_at) / Fold change /veh PLEKHG5 (11743358_a_at) / RFU ZSCAN30 (11745921_a_at) / Fold change /veh ZSCAN30 (11745921_a_at) / RFU CMKLR1 (11741424_a_at) / Fold change /veh CMKLR1 (11741424_a_at) / RFU LOC101060620 /// MAPK8IP1 (11723275_at) / Fold change /veh LOC101060620 /// MAPK8IP1 (11723275_at) / RFU SPTSSB (11747773_x_at) / Fold change /veh SPTSSB (11747773_x_at) / RFU PRSS12 (11739890_at) / Fold change /veh PRSS12 (11739890_at) / RFU BIN1 (11741810_x_at) / Fold change /veh BIN1 (11741810_x_at) / RFU WNT11 (11732464_a_at) / Fold change /veh WNT11 (11732464_a_at) / RFU C10orf10 (11716521_a_at) / Fold change /veh C10orf10 (11716521_a_at) / RFU C5orf56 (11738089_at) / Fold change /veh C5orf56 (11738089_at) / RFU CYB561 (11721691_x_at) / Fold change /veh CYB561 (11721691_x_at) / RFU ANKRD19P (11752326_a_at) / Fold change /veh ANKRD19P (11752326_a_at) / RFU OR2T12 /// OR2T33 /// OR2T8 (11738714_s_at) / Fold change /veh OR2T12 /// OR2T33 /// OR2T8 (11738714_s_at) / RFU VCAN (11748164_a_at) / Fold change /veh VCAN (11748164_a_at) / RFU JSRP1 (11732532_at) / Fold change /veh JSRP1 (11732532_at) / RFU KRTAP10-11 (11738290_x_at) / Fold change /veh KRTAP10-11 (11738290_x_at) / RFU MYO3A (11730013_a_at) / Fold change /veh MYO3A (11730013_a_at) / RFU EBF3 (11725865_a_at) / Fold change /veh EBF3 (11725865_a_at) / RFU CAMK2N1 (11719241_x_at) / Fold change /veh CAMK2N1 (11719241_x_at) / RFU C5orf56 (11738088_a_at) / Fold change /veh C5orf56 (11738088_a_at) / RFU OLFML3 (11715873_a_at) / Fold change /veh OLFML3 (11715873_a_at) / RFU LOC100653217 /// NTM (11731650_a_at) / Fold change /veh LOC100653217 /// NTM (11731650_a_at) / RFU MAPK11 (11762145_a_at) / Fold change /veh MAPK11 (11762145_a_at) / RFU FIZ1 (11724087_x_at) / Fold change /veh FIZ1 (11724087_x_at) / RFU OASL (11726364_x_at) / Fold change /veh OASL (11726364_x_at) / RFU SOX15 (11748057_x_at) / Fold change /veh SOX15 (11748057_x_at) / RFU CD79A (11719716_a_at) / Fold change /veh CD79A (11719716_a_at) / RFU HIST1H1D (11736915_at) / Fold change /veh HIST1H1D (11736915_at) / RFU CASKIN2 (11723855_a_at) / Fold change /veh CASKIN2 (11723855_a_at) / RFU LOC730098 (11760151_x_at) / Fold change /veh LOC730098 (11760151_x_at) / RFU OR4N2 (11742367_at) / Fold change /veh OR4N2 (11742367_at) / RFU PRRT2 (11749266_a_at) / Fold change /veh PRRT2 (11749266_a_at) / RFU SNX32 (11753110_a_at) / Fold change /veh SNX32 (11753110_a_at) / RFU CDHR5 (11726645_a_at) / Fold change /veh CDHR5 (11726645_a_at) / RFU RCAN1 (11760418_a_at) / Fold change /veh RCAN1 (11760418_a_at) / RFU FAM167A (11723789_a_at) / Fold change /veh FAM167A (11723789_a_at) / RFU FAM26E (11764081_at) / Fold change /veh FAM26E (11764081_at) / RFU ISYNA1 (11749810_s_at) / Fold change /veh ISYNA1 (11749810_s_at) / RFU ACY1 (11761880_at) / Fold change /veh ACY1 (11761880_at) / RFU 11764098_at / Fold change /veh 11764098_at / RFU SAMD14 (11745864_x_at) / Fold change /veh SAMD14 (11745864_x_at) / RFU NPB (11741838_a_at) / Fold change /veh NPB (11741838_a_at) / RFU TMPRSS6 (11731388_a_at) / Fold change /veh TMPRSS6 (11731388_a_at) / RFU KRTAP10-2 (11738614_at) / Fold change /veh KRTAP10-2 (11738614_at) / RFU ARHGAP8 /// PRR5-ARHGAP8 (11727945_x_at) / Fold change /veh ARHGAP8 /// PRR5-ARHGAP8 (11727945_x_at) / RFU KRTAP5-7 /// NADSYN1 (11734609_at) / Fold change /veh KRTAP5-7 /// NADSYN1 (11734609_at) / RFU RASL12 (11751679_a_at) / Fold change /veh RASL12 (11751679_a_at) / RFU CDKN2B (11736163_a_at) / Fold change /veh CDKN2B (11736163_a_at) / RFU PRF1 (11729649_at) / Fold change /veh PRF1 (11729649_at) / RFU, ZNF638 /// ZNF638-IT1 / Fold change vs veh, ZNF638 /// ZNF638-IT1 / RFU, PANK3 / Fold change vs veh, PANK3 / RFU, SH3YL1 / Fold change vs veh, SH3YL1 / RFU, ZEB2 / Fold change vs veh, ZEB2 / RFU, NRIP1 / Fold change vs veh, NRIP1 / RFU, PTTG1IP / Fold change vs veh, PTTG1IP / RFU, CAPN2 / Fold change vs veh, CAPN2 / RFU, MED14 / Fold change vs veh, MED14 / RFU, SNORA58 / Fold change vs veh, SNORA58 / RFU, C1orf63 / Fold change vs veh, C1orf63 / RFU, LRRFIP1 / Fold change vs veh, LRRFIP1 / RFU, NDUFAF7 / Fold change vs veh, NDUFAF7 / RFU, SLC12A2 / Fold change vs veh, SLC12A2 / RFU, IBTK / Fold change vs veh, IBTK / RFU, ESF1 / Fold change vs veh, ESF1 / Fold change vs veh, TMEM50B / RFU, TAOK1 / Fold change vs veh, TAOK1 / RFU, ACBD3 / Fold change vs veh, ACBD3 / RFU, TMA16 / Fold change vs veh, TMA16 / RFU, RWDD3 / Fold change vs veh, RWDD3 / RFU, BCAT1 / Fold change vs veh, BCAT1 / RFU, EDEM3 / Fold change vs veh, EDEM3 / RFU, TMEM33 / Fold change vs veh, TMEM33 / RFU, WDR75 / Fold change vs veh, WDR75 / RFU, AHCTF1 / Fold change vs veh, AHCTF1 / RFU, TFRC / Fold change vs veh, TFRC / RFU, ZDHHC17 / Fold change vs veh, ZDHHC17 / RFU, NOM1 / Fold change vs veh, NOM1 / RFU, ARL8B / Fold change vs veh, ARL8B / RFU, ZBTB11 / Fold change vs veh, ZBTB11 / RFU, TAMM41 / Fold change vs veh, TAMM41 / RFU, KIAA1704 /// LOC100996395 / Fold change vs veh, KIAA1704 /// LOC100996395 / RFU, ING1 / Fold change vs veh, ING1 / RFU, TRMT61B / Fold change vs veh, TRMT61B / RFU, FUBP3 / Fold change vs veh, FUBP3 / RFU, TP53 / Fold change vs veh, TP53 / RFU, TNKS2 / Fold change vs veh, TNKS2 / RFU, ZFP14 / Fold change vs veh, ZFP14 / RFU, ACTR2 / Fold change vs veh, ACTR2 / RFU, PPP3R1 / Fold change vs veh, PPP3R1 / RFU, PIK3R1 / Fold change vs veh, PIK3R1 / RFU, HNRNPA1 / Fold change vs veh, HNRNPA1 / RFU, RNF170 / Fold change vs veh, RNF170 / RFU, ZNF28 / Fold change vs veh, ZNF28 / RFU, RNGTT / Fold change vs veh, RNGTT / RFU, OGT / Fold change vs veh, OGT / RFU, BRD1 / Fold change vs veh, BRD1 / RFU, MARS / Fold change vs veh, MARS / RFU, ZNF655 / Fold change vs veh, ZNF655 / RFU, FAHD1 / Fold change vs veh, FAHD1 / RFU, BDP1 / Fold change vs veh, BDP1 / RFU, LRRCC1 / Fold change vs veh, LRRCC1 / RFU, ARID1A / Fold change vs veh, ARID1A / RFU, ZNF146 / Fold change vs veh, ZNF146 / RFU, ZNF330 / Fold change vs veh, ZNF330 / RFU, GPN3 / Fold change vs veh, GPN3 / RFU, C9orf123 / Fold change vs veh, C9orf123 / RFU, N4BP2L2 / Fold change vs veh, N4BP2L2 / RFU, ARFIP1 / Fold change vs veh, ARFIP1 / RFU, FAM179B / Fold change vs veh, FAM179B / RFU, BCL10 / Fold change vs veh, BCL10 / RFU, UHRF1BP1L / Fold change vs veh, UHRF1BP1L / RFU, BET1 / Fold change vs veh, BET1 / RFU, CNOT2 / Fold change vs veh, CNOT2 / RFU, ZNF268 / Fold change vs veh, ZNF268 / Fold change vs veh, ZNF507 / RFU, DGCR2 / Fold change vs veh, DGCR2 / RFU, WDSUB1 / Fold change vs veh, WDSUB1 / Fold change vs veh, HSP90B1 /// MIR3652 / RFU, ADSS / Fold change vs veh, ADSS / RFU, GK / Fold change vs veh, GK / RFU, ZNF148 / Fold change vs veh, ZNF148 / RFU, TAF9 / Fold change vs veh, TAF9 / RFU, SLC1A5 / Fold change vs veh, SLC1A5 / RFU, SLMO2 / Fold change vs veh, SLMO2 / RFU, ABCC4 / Fold change vs veh, ABCC4 / RFU, LOC101060439 /// RAP1B / Fold change vs veh, LOC101060439 /// RAP1B / RFU, RFX7 / Fold change vs veh, RFX7 / RFU, GTPBP10 / Fold change vs veh, GTPBP10 / RFU, CNEP1R1 / Fold change vs veh, CNEP1R1 / RFU, BIVM-ERCC5 /// ERCC5 / Fold change vs veh, BIVM-ERCC5 /// ERCC5 / RFU, ILF3 / Fold change vs veh, ILF3 / RFU 11762660_at / Fold change /veh 11762660_at / RFU VCAN (11757783_s_at) / Fold change /veh VCAN (11757783_s_at) / RFU DDX43 (11728927_at) / Fold change /veh DDX43 (11728927_at) / RFU KRT8 (11758188_x_at) / Fold change /veh KRT8 (11758188_x_at) / RFU NKD1 (11759106_at) / Fold change /veh NKD1 (11759106_at) / RFU SRD5A1 (11742802_a_at) / Fold change /veh SRD5A1 (11742802_a_at) / RFU TPSAB1 /// TPSB2 (11721975_s_at) / Fold change /veh TPSAB1 /// TPSB2 (11721975_s_at) / RFU GSTM3 (11746129_a_at) / Fold change /veh GSTM3 (11746129_a_at) / RFU IL23R (11737362_x_at) / Fold change /veh IL23R (11737362_x_at) / RFU TMEM51 (11727254_a_at) / Fold change /veh TMEM51 (11727254_a_at) / RFU PIWIL2 (11732686_x_at) / Fold change /veh PIWIL2 (11732686_x_at) / RFU ORM1 (11744905_x_at) / Fold change /veh ORM1 (11744905_x_at) / RFU CCDC152 (11743942_at) / Fold change /veh CCDC152 (11743942_at) / RFU ECM1 (11717891_a_at) / Fold change /veh ECM1 (11717891_a_at) / RFU IL23R (11748794_a_at) / Fold change /veh IL23R (11748794_a_at) / RFU TNFAIP8L3 (11732012_x_at) / Fold change /veh TNFAIP8L3 (11732012_x_at) / RFU MBOAT4 (11741988_at) / Fold change /veh MBOAT4 (11741988_at) / RFU 11764193_at / Fold change /veh 11764193_at / RFU TMEM53 (11763286_at) / Fold change /veh TMEM53 (11763286_at) / RFU MAGEB2 (11727129_at) / Fold change /veh MAGEB2 (11727129_at) / RFU TMEM200A (11744735_a_at) / Fold change /veh TMEM200A (11744735_a_at) / RFU CCDC152 (11751479_a_at) / Fold change /veh CCDC152 (11751479_a_at) / RFU FAM211A (11726209_a_at) / Fold change /veh FAM211A (11726209_a_at) / RFU RGS16 (11746705_a_at) / Fold change /veh RGS16 (11746705_a_at) / RFU VCAN (11755009_s_at) / Fold change /veh VCAN (11755009_s_at) / RFU RHOB (11743442_s_at) / Fold change /veh RHOB (11743442_s_at) / RFU RGS16 (11720943_a_at) / Fold change /veh RGS16 (11720943_a_at) / RFU RGS16 (11720944_at) / Fold change /veh RGS16 (11720944_at) / RFU, VPS4B / Fold change vs veh, VPS4B / RFU, CREB1 / Fold change vs veh, CREB1 / RFU, DNAJC13 / Fold change vs veh, DNAJC13 / RFU, GNAQ / Fold change vs veh, GNAQ / RFU, CDK5R1 / Fold change vs veh, CDK5R1 / RFU, ZRANB3 / Fold change vs veh, ZRANB3 / RFU, CUL4A / Fold change vs veh, CUL4A / RFU, CCNY / Fold change vs veh, CCNY / RFU, UFL1 / Fold change vs veh, UFL1 / RFU, COG3 / Fold change vs veh, COG3 / RFU, DIAPH2 / Fold change vs veh, DIAPH2 / RFU, SKA2 / Fold change vs veh, SKA2 / RFU, AFF3 / Fold change vs veh, AFF3 / RFU, LMF1 / Fold change vs veh, LMF1 / RFU, IPO11 / Fold change vs veh, IPO11 / RFU, DFFB / Fold change vs veh, DFFB / RFU, FOXP1 / Fold change vs veh, FOXP1 / RFU, CARD8 / Fold change vs veh, CARD8 / RFU, STRN3 / Fold change vs veh, STRN3 / RFU, ADK / Fold change vs veh, ADK / RFU, RASSF2 / Fold change vs veh, RASSF2 / RFU, WIPF1 / Fold change vs veh, WIPF1 / RFU, LARP1B / Fold change vs veh, LARP1B / RFU, RASA1 / Fold change vs veh, RASA1 / RFU, RB1 / Fold change vs veh, RB1 / RFU, PPFIA1 / Fold change vs veh, PPFIA1 / RFU, MAT2A / Fold change vs veh, MAT2A / RFU, CCT5 / Fold change vs veh, CCT5 / RFU, WDR92 / Fold change vs veh, WDR92 / RFU, CUX1 / Fold change vs veh, CUX1 / RFU, TTC7A / Fold change vs veh, TTC7A / RFU, TMEM135 / Fold change vs veh, TMEM135 / RFU, DEPTOR / Fold change vs veh, DEPTOR / RFU, CPM / Fold change vs veh, CPM / RFU, DNAJB6 / Fold change vs veh, DNAJB6 / RFU, CACNA2D3 / Fold change vs veh, CACNA2D3 / RFU, DTX4 / Fold change vs veh, DTX4 / RFU, TFCP2 / Fold change vs veh, TFCP2 / RFU, GMCL1 /// GMCL1P1 / Fold change vs veh, GMCL1 /// GMCL1P1 / RFU, AEBP2 / Fold change vs veh, AEBP2 / RFU, SNHG1 /// SNORD22 /// SNORD25 /// SNORD26 /// SNORD27 /// SNORD28 /// SNORD29 /// SNORD31 / Fold change vs veh, SNHG1 /// SNORD22 /// SNORD25 /// SNORD26 /// SNORD27 /// SNORD28 /// SNORD29 /// SNORD31 / Fold change (Aza/veh), C12orf56 (ProbeSet 11735607_a_at) / Fold change (ACY-1035/veh), C12orf56 (ProbeSet 11735607_a_at) / Fold change (Aza/veh), FGFR1OP (ProbeSet 11751329_s_at) / Fold change (ACY-1035/veh), FGFR1OP (ProbeSet 11751329_s_at) / Fold change (Aza/veh), VPS36 (ProbeSet 11739960_a_at) / Fold change (ACY-1035/veh), VPS36 (ProbeSet 11739960_a_at) / RFU SYPL1 (11715823_x_at) / Fold change /veh SYPL1 (11715823_x_at) / RFU IGFBP7 (11715501_s_at) / Fold change /veh IGFBP7 (11715501_s_at) / RFU REEP3 (11722064_at) / Fold change /veh REEP3 (11722064_at) / RFU IGLL1 (11728026_x_at) / Fold change /veh IGLL1 (11728026_x_at): dose or concentration left out as unconfirmed. The conditions noted are these: MV-4-11 cells, 48 hours.

As to `Nc1ncn([C@@H]2O[C@H](CO)[C@@H](O)[C@H]2O)c(=O)n1` [azacitidine], the “RFU IL23R (11737362_x_at)” value came out at 11.80 RFU.
